The source made the active and inactive calls. No cut-off for these calls is given here.
How the values were obtained:
MV4-11 [1] = assay: Effect on STAT1 level in human MV4-11 cells upto 5 uM measured for 18 hrs by Western blot analysis; format: functional, cell-based
RS4-11 = assay: Antiproliferative activity against human RS4-11 cells assessed as cell growth inhibition measured for 4 days by celltiter-glo assay; settings: RS4-11, 96 h
HL-60 [2] = assay: Antiproliferative activity against human HL-60 cells assessed as cell growth inhibition measured for 4 days by celltiter-glo assay; settings: HL-60, 96 h
OCI-AML2 = assay: Antiproliferative activity against human OCI-AML2 cells assessed as maximal cell growth inhibition measured for 4 days by celltiter-glo assay relative to control; format: functional; settings: time 4 day
HL-60 [3] = assay: Antiproliferative activity against human HL-60 cells assessed as maximal cell growth inhibition measured for 4 days by celltiter-glo assay relative to control; format: functional; settings: time 4 day
Mus musculus = assay: In vivo induction of degradation of STAT5 in human MV4-11 cells xenografted in SCID mouse assessed as reduction in STAT5 levels at 150 mg/kg, ip measured at 1 hrs by immunoblotting analysis; format: functional, organism-based
[4] = In vivo induction of degradation of STAT5 in human MV4-11 cells xenografted in SCID mouse assessed as reduction in STAT5 levels at 150 mg/kg, ip measured at 24 hrs by immunoblotting analysis; format: functional; parameters: scale not given: the % may be the effect or the level left
MV4-11 [5] = assay: Antitumor activity against human MV4-11 cells xenografted in SCID mouse assessed as tumor growth inhibition at 100 mg/kg, ip administered 5 days a week for 3 weeks; format: functional; settings: MV4-11, 504 h, read-out: TGI
MV4-11 [6] = assay: Antitumor activity against human MV4-11 cells xenografted in SCID mouse assessed as tumor growth inhibition at 200 mg/kg, ip administered 5 days a week for 3 weeks; format: functional; settings: MV4-11, 504 h, read-out: TGI
STAT5A/STAT5B = biological target: T1, STAT5A/STAT5B (Homo sapiens, UniProt P42229+P51692); assay: Induction of STAT5A/5B degradation in human OCI-AML2 cells measured for 18 hrs by immunoblotting analysis; format: cell-based
T1 sequence (P42229 whole entry): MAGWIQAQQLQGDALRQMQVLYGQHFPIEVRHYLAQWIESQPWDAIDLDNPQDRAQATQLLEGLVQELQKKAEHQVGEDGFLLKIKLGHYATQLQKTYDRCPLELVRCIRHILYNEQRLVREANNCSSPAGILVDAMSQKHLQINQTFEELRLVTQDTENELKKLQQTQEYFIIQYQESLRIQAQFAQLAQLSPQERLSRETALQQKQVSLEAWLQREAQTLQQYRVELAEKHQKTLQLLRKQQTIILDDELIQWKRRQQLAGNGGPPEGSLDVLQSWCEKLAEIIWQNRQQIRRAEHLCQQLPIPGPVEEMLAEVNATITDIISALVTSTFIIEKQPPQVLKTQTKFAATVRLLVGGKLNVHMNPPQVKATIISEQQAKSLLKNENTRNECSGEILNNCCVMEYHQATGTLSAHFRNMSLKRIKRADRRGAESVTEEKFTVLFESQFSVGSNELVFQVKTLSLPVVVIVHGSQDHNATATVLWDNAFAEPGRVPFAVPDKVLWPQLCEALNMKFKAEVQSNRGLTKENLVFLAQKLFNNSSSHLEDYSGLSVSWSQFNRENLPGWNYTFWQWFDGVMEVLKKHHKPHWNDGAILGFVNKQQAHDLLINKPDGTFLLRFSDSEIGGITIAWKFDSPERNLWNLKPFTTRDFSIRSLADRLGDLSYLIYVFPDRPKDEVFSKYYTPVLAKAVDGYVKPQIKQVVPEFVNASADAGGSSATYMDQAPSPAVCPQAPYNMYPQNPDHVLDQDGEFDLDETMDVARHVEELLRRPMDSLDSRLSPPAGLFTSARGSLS
T1 sequence (P51692 whole entry): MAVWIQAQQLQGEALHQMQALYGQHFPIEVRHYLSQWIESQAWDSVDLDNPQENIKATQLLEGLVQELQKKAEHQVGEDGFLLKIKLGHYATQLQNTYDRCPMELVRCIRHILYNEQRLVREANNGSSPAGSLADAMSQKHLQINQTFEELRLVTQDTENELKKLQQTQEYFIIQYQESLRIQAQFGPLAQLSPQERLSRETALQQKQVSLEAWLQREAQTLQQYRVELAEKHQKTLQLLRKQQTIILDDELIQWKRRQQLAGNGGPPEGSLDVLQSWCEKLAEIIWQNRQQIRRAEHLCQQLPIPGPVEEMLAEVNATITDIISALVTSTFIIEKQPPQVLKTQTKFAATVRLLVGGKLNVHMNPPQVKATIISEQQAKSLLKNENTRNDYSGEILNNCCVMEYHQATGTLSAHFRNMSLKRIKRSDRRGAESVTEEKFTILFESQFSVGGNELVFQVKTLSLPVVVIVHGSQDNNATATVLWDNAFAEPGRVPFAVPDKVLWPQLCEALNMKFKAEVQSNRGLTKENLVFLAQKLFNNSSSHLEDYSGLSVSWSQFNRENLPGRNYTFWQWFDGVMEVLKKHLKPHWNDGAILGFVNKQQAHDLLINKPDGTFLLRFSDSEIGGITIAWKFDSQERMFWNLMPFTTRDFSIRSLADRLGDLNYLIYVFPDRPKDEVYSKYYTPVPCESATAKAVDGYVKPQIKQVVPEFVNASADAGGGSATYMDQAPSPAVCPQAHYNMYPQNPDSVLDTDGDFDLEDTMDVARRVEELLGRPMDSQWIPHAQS

SMILES: CN(CCCC#Cc1cccc2c1CN(C1CCC(=O)NC1=O)C2=O)C(=O)CCN(C(=O)[C@@H]1CCCN1C(=O)[C@@H](NC(=O)c1cc2cc(C(F)(F)P(=O)(O)O)ccc2s1)C(C)(C)C)c1ccc(-c2nccs2)cc1 (stereo not given in full)
- Activity (MV4-11 [1]): inactive
- IC50 (RS4-11): > 15 µM
- IC50 (HL-60 [2]): > 15 µM
- Imax (OCI-AML2): <5%
- Imax (HL-60 [3]): <5%
- Activity (Mus musculus): Active
- Activity [4]: >70%
- inhibition in vivo at 100 mg/kg (MV4-11 [5]): 60%
- inhibition in vivo at 200 mg/kg (MV4-11 [6]): 80%
- DC50 (STAT5A/STAT5B): 0.28 µM
